We go through four compounds from patent publication US20240076272A1, “Activators of Heme Regulated Inhibitor Kinase (HRI)” (The Brigham and Women`s Hospital, Inc., priority 2019, published 2024).

The melting point is the temperature of the solid-liquid transition.

Series [1] has as its system eIF2α phosphorylation (ATF-4 5′UTR luciferase reporter). Description: surrogate eIF2α phosphorylation dual-luciferase reporter (DLR) assay. To be noted: F/R luciferase ratio normalized to DMSO wells (F/R=1); for fold induction at 1.25 µM: read-out: Fold stimulation of ATF-4 Surrogate eIF2α @ 1.25 μM; for fold induction at 5 µM: read-out: Fold stimulation of ATF-4 Surrogate eIF2α @ 5 μM. The series is classed as cell-based. (In general: In a reporter assay the amount or activity of a reporter protein is the signal.)

A further series deals with human melanoma. To be noted: xenograft mice model of human melanoma; cited from earlier work. A general note: A xenograft is tissue or cells of one species grown in another, often human tumour cells in immunodeficient mice.

Values joined by “and” are separate entries in the source; they are usually repeats but may differ in a detail not shown here. Identical values can stand only once.

For `N#Cc1cc(NC(=O)N[C@H]2C[C@H](Oc3ccc(C(F)(F)F)cc3)C2)cc(C(F)(F)F)c1` [Compound 1-IV, 1-(3-Cyano-5-(trifluoromethyl)phenyl)-3-(trans-3-(4-(trifluoromethyl)phenoxy)cyclobutyl)urea], the melting point lay within 191.6 to 193 °C. Moreover, in series [1], the “Fold stimulation of ATF-4 Surrogate eIF2α @ 1.25 μM” value was determined as 4.4 ± 1.1 fold, the fold induction at 1.25 µM is 4.4, the “Fold stimulation of ATF-4 Surrogate eIF2α @ 5 μM” value stood at 10 ± 1.8 fold and the fold induction at 5 µM was determined as 10.

`N#Cc1cc(NC(=O)N[C@H]2CC[C@H](Oc3ccc(C(F)(F)F)cc3)CC2)cc(C(F)(F)F)c1` [Compound 1-VI, 1-(3-cyano-5-trifluoromethyl) phenyl-3-(trans-4-(4-(trifluoromethyl)phenoxy)cyclohexyl)urea, reference compound]: in the series on human melanoma, the in vivo efficacy entry is recorded as “in vivo efficacy” and the organ toxicity entry is on record as “no apparent organ toxicity”. Besides, in series [1], the “Fold stimulation of ATF-4 Surrogate eIF2α @ 1.25 μM” value was 5.7 fold and 5.7 ± 1.4 fold; the “Fold stimulation of ATF-4 Surrogate eIF2α @ 5 μM” value was 13.8 fold and 13.8 ± 1.5 fold.

As to `N#Cc1cc(F)cc(NC(=O)N[C@H]2CC[C@H](Oc3ccc(C(F)(F)F)cc3)CC2)c1` [Compound 4-VI, 1-(3-Cyano-5-fluorophenyl)-3-(trans-4-(4-(trifluoromethyl)phenoxy)cyclohexyl)urea], the melting point was in the range of 237.8 to 240.8 °C. In series [1], the fold induction at 1.25 µM was 4.6 ± 0.7 and the fold induction at 5 µM worked out at 9.3 ± 1.3.

Turning to `N#Cc1ccc(NC(=O)N[C@H]2CC[C@H](Oc3ccc(C(F)(F)F)cc3)CC2)cc1F` [Compound 5-VI, 1-(4-Cyano-3-fluorophenyl)-3-(trans-4-(4-(trifluoromethyl)phenoxy)cyclohexyl)urea], in series [1], the “Fold stimulation of ATF-4 Surrogate eIF2α @ 1.25 μM” value came out at 5.5 ± 0.4 fold, the fold induction at 1.25 µM came out at 5.5 and the fold induction at 5 µM amounted to 10.4 ± 1.
